This is an account of results in paper PMC11355573, “A New Renieramycin T Right-Half Analog as a Small Molecule Degrader of STAT3” (Marine Drugs, 2024).

Read-outs that look alike come from different tables or passages of the source.

One experiment deals with H460 cells. It is filed as cell-based. Particulars: 24 h. Here is the method: (§1) Apoptosis is a crucial mechanism of cell death induced by anticancer drugs. We further analyzed the apoptosis induction effect of the potent small molecules, namely DH_28, DH_30, and DH_31. Nuclear morphology detected by the staining with nucleus-specific fluorescence dye Hoechst 33342 and cell-impermeable PI for necrotic detection was performed. Morphologic changes by means of condensed and/or fragmented nuclei were observed after 24 h of treatment (Figure 2D). […] Therefore, DH_31 was selected for further experiments.
(§2) Figure 2 The effect of RT right-half analogs on cytotoxicity in NSCLC and human normal lung epithelial (BEAS-2B) cell lines and apoptotic cell death in NSCLC cells. (A) NSCLC H292 and H460 cells were treated with derivatives of RT right-half analogs for 24 h and analyzed using MTT assay to assess cytotoxicity. (B) IC50 values for H292 and H460 cell lines were calculated. (C) BEAS-2B cells were treated with DH_28, DH_30, DH_31, and TM-(−)-18 for 24 h. The cytotoxic effects were evaluated using an MTT assay, and the IC50 values for BEAS-2B cells were determined. (D) H292 and H460 cells were seeded and treated with 0–10 μM of DH_28, DH_30, and DH_31 for 24 h. Hoechst 33342 and PI were used to stain the cell nuclei. Images were obtained under a fluorescence microscope. (E) The percentages of cell death were calculated based on the stained images in H292 and H460 cells. Data represent the mean ± SD (n = 3). *, **, and *** indicate a statistically significant difference between the treated and the untreated cells at p < 0.05, p < 0.01, and p < 0.001, respectively. TEXT PRINTED IN THE PICTURE: (B) DH_17: IC50 ± SD (μM) H292: 20.50 ± 3.69; IC50 ± SD (μM) H460: > 100 | (B) DH_20: IC50 ± SD (μM) H292: 21.46 ± 3.77; IC50 ± SD (μM) H460: > 100 | (B) DH_23: IC50 ± SD (μM) H292: 17.50 ± 3.08; IC50 ± SD (μM) H460: > 100 | (B) DH_26: IC50 ± SD (μM) H292: 7.18 ± 2.39; IC50 ± SD (μM) H460: > 100 | (B) DH_28: IC50 ± SD (μM) H292: 9.56 ± 1.87; IC50 ± SD (μM) H460: 11.48 ± 1.87 | (B) DH_30: IC50 ± SD (μM) H292: 7.80 ± 2.30; IC50 ± SD (μM) H460: 4.51 ± 0.78 | (B) DH_31: IC50 ± SD (μM) H292: 5.54 ± 1.04; IC50 ± SD (μM) H460: 2.90 ± 0.58 | (B) TM-(–)-18: IC50 ± SD (μM) H292: > 100; IC50 ± SD (μM) H460: 7.89 ± 1.27 | (C) DH_28: BEAS-2B IC50 ± SD (μM): 16.46 ± 2.11 | (C) DH_30: BEAS-2B IC50 ± SD (μM): 5.50 ± 1.70 | (C) DH_31: BEAS-2B IC50 ± SD (μM): 6.51 ± 1.40 | (C) TM-(–)-18: BEAS-2B IC50 ± SD (μM): 7.25 ± 1.25 DOUBTS OF THE COPYIST ABOUT THIS PICTURE: Panel C, DH_28, IC50: small print, 16.46 ± 2.11 is the best reading; 6 could be 8 / Panel C, DH_30, IC50: small print, 5.50 ± 1.70 is the best reading; 5 could be 6 / Panel C, DH_31, IC50: small print, 6.51 ± 1.40 is the best reading; 6 could be 8 or 5 / Panel C, TM-(–)-18, IC50: small print, 7.25 ± 1.25 is the best reading

The next experiment relates to H292 cells. In kind it is cell-based. To be noted: for apoptosis: 24 h. The protocol: as §1, §2
The subject of another experiment is STAT3 mRNA. The experiment can be described thus: STAT3 mRNA by Real-time qPCR. In kind it is cell-based, human. To be noted: H460, 0–2.5 μM, 8 h. The protocol: To explore whether the reduction in total STAT3 protein after DH_31 treatments (as shown in Figure 5B–E) occurs at the mRNA or protein levels, we first investigated mRNA levels using Real-time qPCR. […] To evaluate whether DH_31 affects STAT3 stability, pretreatment with MG132, a potent selective proteasome inhibitor, was performed. H460 cells were pretreated with or without MG132 (10 μM) for 1 h and then cells were either treated with DH_31 for 6 h or left untreated. […] The proteasome can recognize and degrade protein targets that are conjugated by single or poly-ubiquitin molecules. To investigate the ubiquitination level of STAT3 with DH_31 treatments, the ubiquitination level was evaluated using immunoprecipitation and Western blot analysis of the STAT3–ubiquitin complex in the lung cancer cells treated with DH_31 and in untreated cells.
Quantitative Real-time PCR was performed to determine the effect of DH_31 on mRNA levels of STAT3 and EMT-related genes. H460 cells (4.0 × 10^5 cells per well) were seeded in 6-well plates. Following overnight incubation, the cells were treated with different concentrations of DH_31 (0–2.5 μM)) for 8 h at 37 °C. After treatment, total RNA was isolated using the RNeasy kit (Qiagen, Germany) and subsequently subjected to cDNA synthesis using qScript cDNA Supermix (Quanta bio, Beverly, MA, USA), following the manufacturers’ protocols. […]
A general note: Real-time PCR tracks product formation cycle by cycle.

As to `COc1c(C)cc2c(c1O)[C@@H]1CN(Cc3ccc4ccccc4c3)[C@@H](C#N)[C@H](C2)N1C` [DH_31, (1R,4R,5S)-10-hydroxy-9-methoxy-8,11-dimethyl-3-(naphthalen-2-ylmethyl)-1,2,3,4,5,6-hexahydro-1,5-epiminobenzo[d]azocine-4-carbonitrile], the necrosis entry in the experiment with H460 cells (H460, 1 µM) is “did not cause significant necrosis”; in the experiment on H460 cells (H460, 10 µM), “did not cause significant necrosis”; with H292 cells (H292, 10 µM, 24 h (p < 0.001)) it was “Necrosis was detected”. Besides, the apoptotic cell death result in the experiment with H460 cells (H460, 10 µM) is listed as “significant apoptotic cell death”. Moreover, the apoptosis entry in the experiment with H292 cells (H292, 1 µM) is “significant apoptosis”; with H292 cells (H292, 10 µM), “significant apoptosis”. For the same compound, the “mRNA expression of STAT3” value in the experiment with STAT3 mRNA was “did not change significantly”.
